Data published in patent publication US8513286B2, “Iminipyridine derivatives and their uses as microbiocides” (Syngenta Crop Protection LLC, priority 2007, dated 2013).

Columns and labels:
Format in all cases: in vivo
[1] = test system: Erysiphe graminis f.sp. tritici; assay: Erysiphe graminis f.sp. tritici, wheat powdery mildew, preventative test on wheat leaf segments; conditions: Blumeria graminis, foliar, 168 h, application rate 200 ppm, assessed 7 days after inoculation, 0=no control, 100%=complete control, read-out: preventive fungicidal activity, percent efficacy relative to untreated infected control
Method: Erysiphe graminis f.sp. tritici: Wheat Powdery Mildew, Preventative Test Erysiphe graminis f.sp. tritici (Wheat powdery mildew): Wheat leaf segments are placed on agar in multiwell plates (24-well format) and sprayed with the formulated (2% Dimethylsulfoxid, 0,025% Tween 20) test solutions. After drying, the leaf disks are inoculated with spores of the fungus (50 conidia/mm2). After appropriate incubation, the preventive fungicidal activity of a compound is assessed 7 days after inoculation as disease damage on the leaf disks and calculated as percent efficacy relative to untreated infected control. (0=no control of Erysiphe graminis f.sp. tritici, 100%=complete control). In this test, compounds listed in Table P above show good activity.

Puccinia recondita [2] = assay: Puccinia recondita, brown rust of wheat, preventative test on wheat leaf segments; conditions: foliar, 192 h, application rate 200 ppm, assessed 8 days after inoculation, 0=no control, 100%=complete control, read-out: preventive fungicidal activity, percent efficacy relative to untreated infected control
Method: (§1) Puccinia recondite: Brown Rust of Wheat, Preventative Test Puccinia recondita (Brown rust): Wheat leaf segments are placed on agar in multiwell plates (24-well format) and sprayed with the formulated (2% Dimethylsulfoxid, 0,025% Tween 20) test solutions. After drying, the leaf disks are inoculated with a spore suspension of the fungus (45'000 conidia/ml). After appropriate incubation, the preventive fungicidal activity of a compound is assessed 8 days after inoculation as disease damage on the leaf disks and calculated as percent efficacy relative to untreated infected control (0=no control of Puccinia recondita, 100%=complete control). In this test, compounds listed in Table P above show good activity.

[3] = test system: Erysiphe graminis f.sp. hordei; assay: Erysiphe graminis f.sp. hordei, powdery mildew of barley, curative test on barley leaf segments; conditions: Blumeria graminis, foliar, 168 h; application rate 200 ppm; barley leaf segments sprayed 24 h after inoculation; assessed 7 days after inoculation; 0=no control, 100%=complete control; read-out: curative fungicidal activity, percent efficacy relative to untreated infected control
Method: Erysiphe graminis f.sp. hordei: Powdery Mildew of Barley, Curative Test Erysiphe graminis f.sp. hordei (Barley powdery mildew): Barley leaf segments are placed on agar in multiwell plates (24-well format). The leaf disks are inoculated with spores of the fungus (120 conidia/mm2). After 24 h the leaf disks are sprayed with the formulated (2% Dimethylsulfoxid, 0,025% Tween 20) test solutions. After appropriate incubation, the curative fungicidal activity of a compound is assessed 7 days after inoculation as disease damage on the leaf disks and calculated as percent efficacy relative to untreated infected control (0=no control of Erysiphe graminis f.sp. hordei, 100%=complete control). In this test, compounds listed in Table P above show good activity.

Puccinia recondita [4] = assay: Puccinia recondita, brown rust of wheat, curative test on wheat leaf segments; conditions: foliar, 192 h, application rate 200 ppm, wheat leaf segments treated one day after inoculation, assessed 8 days after inoculation, 0=no control, 100%=complete control, read-out: curative fungicidal activity, percent efficacy relative to untreated infected control
Pyrenophora teres = assay: Pyrenophora teres, net blotch of barley, preventative test on barley leaf segments; conditions: foliar, 96 h, application rate 200 ppm, assessed 4 days after inoculation, 0=no control, 100%=complete control, read-out: preventive fungicidal activity, percent efficacy relative to untreated infected control
Method: as §1, with “Pyrenophora teres: Net Blotch” for “Puccinia recondite: Brown Rust”, “Barley,” for “Wheat,”, “Method Description Pyrenophora teres (Net blotch): Barley” for “Puccinia recondita (Brown rust): Wheat”, “(25'000” for “(45'000”, “4” for “8”, “Pyrenophora teres,” for “Puccinia recondita,”

Botrytis cinerea = assay: Botrytis cinerea, gray mould, preventative test on bean leaf disks; conditions: application rate 200 ppm, assessed 3 days after inoculation, 0=no control, 100%=complete control
Method: (§2) Botrytis cinerea: Gray Mould, Preventative Test Botrytis cinerea (Gray mould): Bean leaf disks are placed on agar in multiwell plates (24-well format) and sprayed with the formulated (2% Dimethylsulfoxid, 0,025% Tween 20) test solutions. After drying, the leaf disks are inoculated with a spore suspension of the fungus (60′000 conidia/ml). After appropriate incubation, the preventive fungicidal activity of a compound is assessed 3 days after inoculation as disease damage on the leaf disks and calculated as percent efficacy relative to untreated infected control. (0=no control of Botrytis cinerea, 100%=complete control). In this test, compounds listed in Table P above show good activity.

Plasmopara viticola = assay: Plasmopara viticola, downy mildew of grapevine, preventative test on grape vine leaf disks; conditions: application rate 200 ppm, assessed 6 days after inoculation, 0=no control, 100%=complete control
Method: as §2, with “Plasmopara viticola: Downy Mildew of Grapevine,” for “Botrytis cinerea: Gray Mould,”, “Plasmopara viticola (downy mildew of grapevine): Grape vine” for “Botrytis cinerea (Gray mould): Bean”, “(80′000” for “(60′000”, “6” for “3”, “Plasmopara viticola,” for “Botrytis cinerea,”

SMILES | pest or weed control at 200 ppm [1] [%] | pest or weed control at 200 ppm (Puccinia recondita [2]) [%] | pest or weed control at 200 ppm (Puccinia recondita [4]) [%] | further results
CCN(C)/C=N/c1cc(OC)c(Oc2ccc(Cl)c(C(F)(F)F)c2)nc1Cl [P.63] | ≥ 50 | – | – | –
CCN(C)/C=N/c1cnc(Oc2ccc(Cl)c(C(F)(F)F)c2)cc1C [P.11] | – | ≥ 50 | – | pest or weed control at 200 ppm [3]: ≥ 50%
CCN(C)/C=N/c1cnc(Oc2ccc(Cl)c(C(F)(F)F)c2)c(C)c1 [P.19] | – | – | – | pest or weed control at 200 ppm [3]: ≥ 50%
CN(C)/C=N/c1ccc(Oc2ccc(Cl)cc2)nc1 [P.22] | ≥ 50 | – | – | –
CCN(C)/C=N/c1cc(Cl)c(OCCCC(C)C)nc1C#N [P.81] | – | – | ≥ 50 | –
CCN(C)/C=N/c1cc(Cl)c(OCCCC(C)C)nc1Br [P.64] | ≥ 50 | ≥ 50 | ≥ 50 | pest or weed control at 200 ppm (Pyrenophora teres): ≥ 50%
Cc1cc(/N=C/N(C)c2ccccn2)cnc1Oc1ccc(Cl)c(C(F)(F)F)c1 [P.16] | – | – | – | pest or weed control at 200 ppm [3]: ≥ 50%
CCN(C)/C=N/c1cc(Cl)c(OCCCC(C)C)nc1OC [P.59] | ≥ 50 | ≥ 50 | ≥ 50 | –
CC(C)c1cc(Oc2ccc(Cl)c(Cl)c2)nc(C(C)C)c1/N=C/N(C)C [P.05] | – | – | – | pest or weed control at 200 ppm (Pyrenophora teres): ≥ 50%
COc1ccc(Oc2ccc(/N=C/N(C)C)cn2)cc1 [P.21] | ≥ 50 | – | – | –
CCN(C)/C=N/c1cc(Br)c(Oc2ccc(Cl)c(C(F)(F)F)c2)nc1C [P.29] | ≥ 50 | ≥ 50 | ≥ 50 | preventive fungicidal activity, percent efficacy relative to untreated infected control (Botrytis cinerea): at least 50%
Cc1nc(OCCCC(C)C)c(Br)cc1NC(=S)N(C)C(C)C [P.35] | ≥ 50 | ≥ 50 | ≥ 50 | –
CCN(C)/C=N/c1cc(-c2ccc(F)cc2)c(Oc2ccc(Cl)c(C(F)(F)F)c2)nc1C [P.30] | ≥ 50 | – | – | –
CCN(C)/C=N/c1cc(Br)c(OCCCC(C)C)nc1OC [P.61] | ≥ 50 | ≥ 50 | ≥ 50 | –
Cc1cc(/N=C/N(C)C)cnc1Oc1ccc(Cl)c(C(F)(F)F)c1 [P.09] | ≥ 50 | – | – | pest or weed control at 200 ppm (Pyrenophora teres): ≥ 50%
CCN(C)/C=N/c1cnc(Oc2cccc(C(F)(F)F)c2)c(Br)c1C [P.51] | – | ≥ 50 | – | –
CCN(C)/C=N/c1cc(Br)c(Oc2cccc3ccccc23)nc1C [P.76] | ≥ 50 | ≥ 50 | ≥ 50 | –
CCN(C)/C=N/c1ccc(OCCCC(C)C)nc1OC [P.58] | – | ≥ 50 | ≥ 50 | –
CCN(C)/C=N/c1cnc(Oc2cccc(C(C)(C)C)c2)c(C)c1 [P.17] | – | – | – | pest or weed control at 200 ppm [3]: ≥ 50%
Cc1cc(Oc2ccc(Cl)c(C(F)(F)F)c2)ncc1/N=C/N(C)C [P.06] | – | – | – | pest or weed control at 200 ppm [3]: ≥ 50%
CN(C)/C=N/c1ccc(Oc2ccc(Cl)cc2Cl)nc1 [P.03] | – | – | – | pest or weed control at 200 ppm [3]: ≥ 50%
CN(C)/C=N/c1ccc(Oc2ncc(C(F)(F)F)cc2Cl)nc1 [P.15] | – | – | – | pest or weed control at 200 ppm [3]: ≥ 50%

SMILES | pest or weed control at 200 ppm [1] [%] | pest or weed control at 200 ppm (Puccinia recondita [2]) [%] | pest or weed control at 200 ppm (Puccinia recondita [4]) [%] | further results
CCN(C)/C=N/c1cc(C#N)c(Oc2cc(F)cc(F)c2)nc1C [P.41] | – | – | ≥ 50 | –
CCN(C)/C=N/c1cc(C#C[Si](C)(C)C)c(Oc2ccc(Cl)c(C(F)(F)F)c2)nc1C [P.31] | – | ≥ 50 | ≥ 50 | –
C#CC(C)N(C)/C=N/c1ccc(Oc2ccc(Cl)cc2Cl)nc1 (stereo not drawn) [P.04] | – | – | – | pest or weed control at 200 ppm [3]: ≥ 50%
CCN(C)/C=N/c1cc(OC)c(OCCCC(C)C)nc1Cl [P.73] | ≥ 50 | ≥ 50 | ≥ 50 | pest or weed control at 200 ppm (Pyrenophora teres): ≥ 50%
CCN(C)/C=N/c1cc(Cl)c(OCCCC(C)C)nc1C [P.46] | – | – | – | pest or weed control at 200 ppm (Pyrenophora teres): ≥ 50%
CCN(C)/C=N/c1ccc(Oc2ccc(Cl)cc2Cl)nc1 [P.01] | – | – | – | pest or weed control at 200 ppm [3]: ≥ 50%
CCN(C)/C=N/c1cc(OC)c(OCCCC(C)C)nc1Br [P.70] | – | ≥ 50 | ≥ 50 | –
CCN(C)/C=N/c1cc(OC)c(Oc2ccc(Cl)c(C(F)(F)F)c2)nc1Br [P.68] | ≥ 50 | – | – | –
CCN(C)/C=N/c1cc(Br)c(Oc2cc(Cl)c3ncc(Br)cc3c2)nc1C [P.79] | – | ≥ 50 | – | –
CCN(C)/C=N/c1cc(Br)c(Oc2ccc3ncc(Br)cc3c2)nc1C [P.78] | ≥ 50 | – | – | –
CCN(C)/C=N/c1cc(Br)c(Oc2ccc3ccccc3c2)nc1C [P.77] | ≥ 50 | ≥ 50 | ≥ 50 | –
CCN(C)/C=N/c1cc(Br)c(OCCCC(C)C)nc1Br [P.69] | ≥ 50 | – | ≥ 50 | pest or weed control at 200 ppm (Pyrenophora teres): ≥ 50%
C#CC(C)N(C)/C=N/c1cnc(Oc2ccc(Cl)c(C(F)(F)F)c2)c(C)c1 (stereo not drawn) [P.10] | – | – | – | preventive fungicidal activity, percent efficacy relative to untreated infected control (Plasmopara viticola): at least 50%
CCN(C)/C=N/c1cc(Br)c(OC2CCc3cc(OC)ccc3C2)nc1C (stereo not drawn) [P.82] | ≥ 50 | ≥ 50 | ≥ 50 | –
CCN(C)/C=N/c1cnc(Oc2cccc(C(F)(F)F)c2)cc1C [P.36] | – | – | ≥ 50 | –
Cc1cc(/N=C/N(C)C)cnc1Oc1cccc(C(C)(C)C)c1 [P.14] | – | – | – | pest or weed control at 200 ppm [3]: ≥ 50%
CCN/C=N/c1cnc(Oc2ccc(Cl)c(C(F)(F)F)c2)c(C)c1 [P.08] | – | – | – | pest or weed control at 200 ppm [3]: ≥ 50%; pest or weed control at 200 ppm (Pyrenophora teres): ≥ 50%
CCN(C)/C=N/c1cc(Br)c(OCCCC(C)C)nc1C [P.26] | ≥ 50 | ≥ 50 | ≥ 50 | –
CCN(C)/C=N/c1cc(Br)c(OC2CCc3ccccc3C2)nc1C (stereo not drawn) [P.62] | ≥ 50 | ≥ 50 | ≥ 50 | pest or weed control at 200 ppm (Pyrenophora teres): ≥ 50%
CCN(C)/C=N/c1ccc(Oc2ccc(Cl)c(C(F)(F)F)c2)nc1C [P.07] | ≥ 50 | ≥ 50 | – | pest or weed control at 200 ppm [3]: ≥ 50%
CCN(C)/C=N/c1ccc(OCCCC(C)C)nc1C [P.28] | ≥ 50 | ≥ 50 | ≥ 50 | –
